Measured values from article PMC7583056, “Synthesis, Characterisation and In Vitro Anticancer Activity of Catalytically Active Indole-Based Half-Sandwich Complexes” (Molecules, 2020).

Legend:
[1] = Transfer hydrogenation: reduction of NAD+ with formate as hydride donor (1H-NMR); settings: for TOF (turnover frequency) for the reduction of NAD+: NAD+ 9 mol. equiv., formate 28 mol. equiv., pH* 7.4 ± 0.2, 310 K, complex 1.1 mM in MeOD/D2O (1:1 v/v)
Method: The ability of complexes 1–4 to oxidise NADH was investigated. The ^1H-NMR spectra show an increase of the NAD^+ signals over time (Figure 3). However, the reaction is very slow and after 8 h only around 10% of NADH is converted to NAD^+. […] The possibility of using compounds 1–4 as a transfer hydrogenation catalyst to reduce NAD^+ was investigated (Materials and Methods section). Compounds 1–4 reduced NAD^+ with turnover frequencies (TOF) between 6 and 15 h^−1 (Table 1), which is within the range of previously reported compounds [51, 53, 74, 75, 76]. Remarkably, under the conditions here reported (MeOD/D2O 1:1 v/v, 310 K, pH* 7.4 ± 0.2), the iridium complex 2 reduced nine molar equivalents of NAD^+ within the initial 10 min. However, no TOF could be calculated for this compound, owing to the speed of the reaction.
Transfer hydrogenation reactions with complexes 1–4, formate, and NAD^+ were studied by mixing a solution of the corresponding complex (2.2 mM, MeOD), sodium formate (137 mM, D2O) and NAD^+ (44 mM, D2O). Final concentrations of 1.1 mM for the complex, 10 mM for NAD^+ and 30 mM for NaHCO2 were obtained (molar ratio 1:9:28). The pH of the mixture was adjusted to 7.4 ± 0.2. ^1H-NMR spectra were recorded at 310 K every 5 min until completion of the reaction.
Molar ratios of NAD^+ and NADH were determined by integrating the area under the signals associated with NAD^+ (9.33 ppm) and 1,4-NADH (6.96 ppm). The turnover number (TON) for the reaction was calculated as follows: (1) TONI6.96/I6.96+[…][NAD^+]0/[Catalyst] where In is the integral of the signal at n ppm and [NAD^+]0 is the concentration of NAD^+ at the start of the reaction.

[2] = Stability in d6-DMSO by 1H-NMR; format: physicochemical; settings: 1.1 mM; for Release of the ind-py ligand (decoordination rate): over 24 h; for Release of the ind-py ligand (decoordination rate) / Time to reach equilibrium with second species (DMSO-adduct): 1H-NMR; for Stability in DMSO (in words): 24 h, after equilibrium with DMSO-adduct
Method: (§1) Owing to the limited aqueous solubility of the complexes, all the reactivity experiments were performed using a mixture MeOD/D2O (1:1 v/v) as a solvent. The stability of complexes 1–4 in MeOD/D2O was studied via ^1H-NMR spectroscopy over a period of 24 h. […] The stability of complexes 1–4 in dimethylsulfoxide (DMSO;1.1 mM) was also studied by ^1H-NMR spectroscopy over a period of 24 h (Figure S1). […] The ligand ind-py is also stable in MeOD/D2O over 24 h (Figure S1E).
Complexes 1–4 were also dissolved in d6-DMSO (1.1 mM) and ^1H-NMR spectra were recorded at t ≤ 10 min, 12 h and 24 h.

[3] = Solubility as observed; format: physicochemical; settings: MeOD/D2O 1:1 v/v, 1.1 mM
Method: as §1

[4] = system: 9-ethylguanine (9-EtG); assay: Binding constant towards 9-EtG by 1H-NMR titration; settings: complex 1.1 mM in MeOD/D2O (1:1 v/v), non-linear fit
Method: Binding constant of complexes 1, 3 and 4 with 9-EtG were calculated using the non-linear ThordarsonFittingProgram (Table 1). The binding constant for complex 2 was not calculated due to solubility issues. The magnitude of the binding constants (10^3–10^4 M^−1) is low compared to the usually observed complexation constants in coordination chemistry (>>10^6 M^−1), and is in the range of binding constants observed in host-guest inorganic chemistry (e.g., via non-covalent interactions between a metalla-cage and an aromatic planar guest molecule).
The reactions of complexes 1–4 with 9-ethylguanine (9-EtG) and 9-methyladenine (9-MetA) were studied. MeOD solutions of complexes 1–4 (2.2 mM) were mixed with a solution of the corresponding nucleobase in D2O (4.4 mM) and the pH adjusted to 7.4 ± 0.2. Final concentrations of 1.1 mM for the complex and 2.2 mM for the nucleobase were obtained. ^1H-NMR spectra of the resulting mixture were recorded at t ≤ 10 min, 5 h and 24 h in MeOD/D2O (1:1 v/v).
A titration using 9-EtG at increasing concentrations was performed and the resulting samples were analysed using ^1H-NMR spectroscopy. Binding constants were calculated using the non-linear ThordarsonFittingProgram by plotting the chemical shift of the complex versus the concentration of 9-EtG. Alternatively, binding constant for complexes 3 and 4 was obtained by plotting the ratio of 9-EtG adduct/complex against the concentration of 9-EtG.

Row | SMILES | Time to reduce nine molar equivalents of NAD+ ([1]; MeOD/D2O 1:1 v/v, 310 K, pH* 7.4 ± 0.2, formate 28 mol. equiv.) [min] | Release of the ind-py ligand (decoordination rate) [2] [%] | Solubility in MeOD/D2O (in words) [3] | TOF (turnover frequency) for the reduction of NAD+ [1] [h⁻¹] | K9-EtG (binding constant towards 9-EtG) [4] [M⁻¹] | Time to reach equilibrium with second species (DMSO-adduct) [2] | Stability in DMSO (in words) [2] | TOF (printed in Figure 3C) ([1]; 28 mol. equiv. formate, 9 mol. equiv. NAD+, MeOD/D2O 1/1 v/v, pH 7.4, 310 K, in 1/h)
1 | Cc1c(C)c(C)[c-](C)c1C.[Cl-].[Ir+3].c1ccc(-c2cc3ccccc3[n-]2)nc1 [complex 2, [Cp*Ir(ind-py)Cl]] | ≤ 10 | 25 | poor solubility |  |  |  |  | 
2 | Cc1ccc(C(C)C)cc1.[Cl-].[Os+2].c1ccc(-c2cc3ccccc3[n-]2)nc1 [complex 4, [(p-cym)Os(ind-py)Cl]] |  |  |  | 5.74 ± 0.35 | 95400 | less than 10 min | stable | 
3 | Cc1ccc(C(C)C)cc1.[Cl-].[Ru+2].c1ccc(-c2cc3ccccc3[n-]2)nc1 [complex 3, [(p-cym)Ru(ind-py)Cl]] |  |  |  | 7.95 ± 0.81 | 71600 | less than 10 min | stable | 
4 | Cc1c(C)c(C)[c-](C)c1C.[Cl-].[Rh+3].c1ccc(-c2cc3ccccc3[n-]2)nc1 [complex 1, [Cp*Rh(ind-py)Cl]] |  | 25 |  | 14.6 ± 0.7 | 25600 |  |  | 14.63 ± 0.78
